Laboratory results: patent US7115596B2, “Thiazole compounds as integrin receptor antagonists derivatives” (Pharmacia Corporation, priority 2002, dated 2006)
Structures can show the parent of a compound that is named as a salt.

Test: Plasma level upon oral dosing (AUC-PO) in rat
Format: in vivo
Details: per dose, Table 1
For O=C(O)C[C@H](Cc1csc(CCCCNc2cc(N3CCOCC3)ccn2)n1)c1ccc2c(c1)OCO2, the “Rat AUC/Dose” value was 0.0634 ug-/m/L/mg/Kg.
In the case of O=C(O)CC(Cc1csc(CCCc2ccc3c(n2)NCCC3)n1)c1ccc2c(c1)OCO2 (stereo not drawn) [drawing 98], the “Rat AUC/Dose” value is reported as 6.81 ug-/m/L/mg/Kg.

Same assay, conditions: per dose, second table
With O=C(O)CC(Cc1csc(CCCc2ccc3c(n2)NCCC3)n1)c1cnc(C2CC2)s1 (stereo not drawn) [Example 16, 3-(2-Cyclopropyl-1,3-thiazol-5-yl)-4-{2-[3-(5,6,7,8-tetrahydro-1,8-naphthyridin-2-yl)propyl]-1,3-thiazol-4-yl}butanoic acid hydrochloride] the “Rat PK-AUC/dose” value was 1.7 ug-h/m/L/mg/Kg.
With COc1ccc(C(CC(=O)O)Cc2csc(CCCc3ccc4c(n3)NCCC4)n2)cc1F (stereo not drawn) [Example 2, 3-(3-fluoro-4-methoxyphenyl)-4-{2-[3-(5,6,7,8-tetrahydro-1,8-naphthyridin-2-yl)propyl]-1,3-thiazol-4-yl}butanoic acid hydrochloride] the “Rat PK-AUC/dose” value was 1.8 ug-h/m/L/mg/Kg.
With O=C(O)CC(Cc1csc(CCCc2ccc3c(n2)NCCC3)n1)c1ccc2c(c1)OCO2 (stereo not drawn) [Example 6, 3-(1,3-benzodioxol-5-yl)-4-{2-[3-(5,6,7,8-tetrahydro-1,8-naphthyridin-2-yl)propyl]-1,3-thiazol-4-yl}butanoic acid hydrochloride] the “Rat PK-AUC/dose” value was 6.8 ug-h/m/L/mg/Kg.
In the case of COc1ccc(C(CC(=O)O)Cc2csc(CCCc3ccc4c(n3)NCCC4)n2)cn1 (stereo not drawn) [Example 13, 3-(6-Methoxypyridin-3-yl)-4-{2-[3-(5,6,7,8-tetrahydro-1,8-naphthyridin-2-yl)propyl]-1,3-thiazol-4-yl}butanoic acid hydrochloride], the “Rat PK-AUC/dose” value is reported as 1.6 ug-h/m/L/mg/Kg.
With Cc1nc2cc(C(CC(=O)O)Cc3csc(CCCc4ccc5c(n4)NCCC5)n3)ccc2s1 (stereo not drawn) [Example 9, 3-(2-methyl-1,3-benzothiazol-5-yl)-4-{2-[3-(5,6,7,8-tetrahydro-1,8-naphthyridin-2-yl)propyl]-1,3-thiazol-4-yl}butanoic acid hydrochloride] the “Rat PK-AUC/dose” value was 2.5 ug-h/m/L/mg/Kg.
In the case of O=C(O)C[C@H](Cc1csc(CCCc2ccc3c(n2)NCCC3)n1)c1ccc2c(c1)OCO2 [Example 7, (3S)-3-(1,3-benzodioxol-5-yl)-4-{2-[3-(5,6,7,8-tetrahydro-1,8-naphthyridin-2-yl)propyl]-1,3-thiazol-4-yl}butanoic acid hydrochloride], the “Rat PK-AUC/dose” value is reported as 8.7 ug-h/m/L/mg/Kg.
With COc1cc(OC)cc(C(CC(=O)O)Cc2csc(CCCc3ccc4c(n3)NCCC4)n2)c1 (stereo not drawn) [Example 5, 3-(3,5-dimethoxyphenyl)-4-{2-[3-(5,6,7,8-tetrahydro-1,8-naphthyridin-2-yl)propyl]-1,3-thiazol-4-yl}butanoic acid hydrochloride] the “Rat PK-AUC/dose” value was 2.2 ug-h/m/L/mg/Kg.
